The source of these data is patent US20210186982A1, “METHODS AND COMPOSITIONS FOR TREATING MELANOMA” (UNIVERSITE NICE SOPHIA ANTIPOLIS, priority 2017, published 2021).

One data set concerns A375. Briefly: MTS conversion assay, melanoma cell proliferation. The data set is classed as cell-based, human. As to conditions: 24 h; increasing doses up to 10 μM. As for the experimental part:
Cell proliferation was measured by a MTS conversion assay using the CellTiter 96® Aqueous Non-Radioactive Cell Proliferation kit (Promega, Madison Wis.) according to the manufacturer instructions. Cells were seeded in 96-well plates (5×10^4 cells/well) and treated with different reagents for the indicated times and incubated at 37° C. with MTS reagent. The optical density of each sample at 490 nm was determined with a Multiskan FC plate reader (Thermo Fisher Scientific, Waltham, Mass. USA).
For orientation: Tetrazolium assays rely on reduction of a dye to a coloured formazan, in cell work by metabolically active cells.

In the next data set the test system is A375 cells. Briefly: ROS production (CM-H2DCFDA, flow cytometry). The format is cell-based, human. Conditions: 5 mM NAC with 2 μM b-AP15. How it is done: ROS levels were measured using the redox-sensitive dye CM-H2DCFDA (Thermo Fischer Scientific). After treatment, cells were stained with 10 μM CM-H2DCFDA in PBS for 30 min at 37° C. Cells were washed with PBS and resuspended in PBS 5 mM EDTA/1% BSA. ROS production was analysed using a MACSQuant® Analyzer 10 cytometer (Miltenyi Biotech).
In general terms: A flow cytometer gives signals particle by particle.

The test system of a further data set is melanoma cell cultures. Briefly: Cytotoxicity of b-AP15 in presence of NAC or pan-caspase inhibitor. The data set is classed as cell-based, human. Conditions: co-incubation with b-AP15.
A further data set addresses T1, USP14 (Homo sapiens, UniProt P54578).
T1 construct: endogenous in cells; host or cells: A375 (also 1205Lu, 501Mel, SKMel28, 451Lu) melanoma cells; cell lysates
Nature of the data set: DUB trap assay (HA-Ub-VS probe, anti-USP14 immunoblot). The data set is classed as cell-based. As to conditions: A375 melanoma cells. As for the experimental part:
(§1) Cells were harvested, washed with PBS and pellets were dried then freezed (−80° C.) and subsequently lysed in ice-cold buffer containing 50 mM Tris (pH 7.4), 5 mM MgCl2, 250 mM sucrose, 1 mM DTT, 2 mM ATP, and 1 mM PMSF and mild sonication. Lysates were cleared by centrifugation, and 20 μg of protein extracts were incubated for 25 min at 37° C. with 2 μM HA-Ub-VS (Boston Biochem, Cambridge, Mass.). After boiling in reducing sample buffer, labelled cell lysates were subjected to immunoblot analysis as described above using the indicated antibodies.

The target of another data set is T2, UCHL5 (Homo sapiens, UniProt Q9Y5K5).
T2 construct: 20 μg of protein extracts were incubated for 25 min at 37° C. with 2 μM HA-Ub-VS; endogenous in cells; host or cells: A375 melanoma cells; cell lysates
T2 sequence (Q9Y5K5 whole entry): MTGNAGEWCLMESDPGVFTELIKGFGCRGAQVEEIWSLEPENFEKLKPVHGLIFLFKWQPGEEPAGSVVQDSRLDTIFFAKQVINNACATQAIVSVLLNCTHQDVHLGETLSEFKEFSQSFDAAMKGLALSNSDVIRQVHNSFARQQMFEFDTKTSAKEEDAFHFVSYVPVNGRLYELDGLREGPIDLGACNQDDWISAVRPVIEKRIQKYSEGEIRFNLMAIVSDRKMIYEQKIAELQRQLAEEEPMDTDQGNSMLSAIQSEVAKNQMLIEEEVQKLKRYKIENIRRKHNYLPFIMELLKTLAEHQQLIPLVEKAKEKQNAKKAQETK
Briefly: DUB trap assay (HA-Ub-VS probe, anti-UCHL5 immunoblot). The format is cell-based. How it is done:
as §1
In general terms: A western blot detects proteins with antibodies after separation by electrophoresis.

A further data set has as its system A375 and Me1501 cells. Nature of the data set: Cytotoxicity, cytotox green reagent (IncuCyte). The format is cell-based, human. As to conditions: 72 h; compared with b-AP15. How it is done:
FIG. 8. USP14 inhibition induces growth inhibition and cytotoxicity on melanoma cell lines. (A) Growth curve of A375 treated with 2 μM b-AP15, 2 μM VLX1570 or […] bortezomib (BTZ). Data were acquired in triplicate during 3 days using an IncuCyte Zoom. (B) and (C) Cytotoxic effects of USP14 inhibition on melanoma cells. A375 and Me1501 cells were treated with the indicated doses of b-AP15 or VLX1570, and stained with cytotox green reagent (100 nM). Cytotoxicity was monitored in triplicate for 72 h with an IncuCyte imaging system.

A short description of data set [1]: Annexin-V-FITC/7-AAD flow cytometry, cell viability. The format is cell-based. As to conditions: human, A375 cells; solvent 87%. As for the experimental part:
Cell death was evaluated by flow cytometry following staining with Annexin-V-FITC and 7-AAD (eBiosciences) as previously described 24.

T1 sequence (P54578 whole entry): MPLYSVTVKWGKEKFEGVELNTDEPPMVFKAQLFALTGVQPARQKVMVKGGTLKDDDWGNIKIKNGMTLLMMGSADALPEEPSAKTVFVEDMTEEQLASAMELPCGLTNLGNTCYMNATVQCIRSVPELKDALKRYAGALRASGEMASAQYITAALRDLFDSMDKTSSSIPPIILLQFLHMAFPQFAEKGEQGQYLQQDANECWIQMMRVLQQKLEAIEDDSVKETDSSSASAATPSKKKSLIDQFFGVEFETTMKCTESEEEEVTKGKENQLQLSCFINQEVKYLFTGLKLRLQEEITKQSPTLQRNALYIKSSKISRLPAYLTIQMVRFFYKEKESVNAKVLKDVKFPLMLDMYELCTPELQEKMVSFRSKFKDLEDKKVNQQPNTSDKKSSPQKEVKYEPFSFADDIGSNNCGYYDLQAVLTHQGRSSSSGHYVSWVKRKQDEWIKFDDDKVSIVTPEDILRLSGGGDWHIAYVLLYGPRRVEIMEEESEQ

As for `N#Cc1nc2c(nc1C#N)-c1ccc(Cl)cc1C2=O` [HBX41108], the “cell proliferation of A375 cells (MTS)” value with A375 is recorded as “drastically decreased cell proliferation”.
For `CC(=O)N[C@@H](CS)C(=O)O` [NAC, N-acetyl-L-cysteine], the “effect on b-AP15-triggered burst of ROS” value with A375 cells is on record as “inhibited”. Further, the “effect on cytotoxicity of b-AP15” value in the data set on melanoma cell cultures was “blocked”.
In the case of `CC(C)[C@H](NC(=O)c1ccc2ccccc2n1)C(=O)N[C@@H](CC(=O)O)C(=O)COc1c(F)cccc1F` [QVD-OPh], the “effect on cytotoxicity of b-AP15” value in the data set with melanoma cell cultures is listed as “did not prevent the cytotoxic action of b-AP15”.
With `C=CC(=O)N1CC/C(=C\c2ccc(F)c([N+](=O)[O-])c2)C(=O)/C(=C/c2ccc(F)c([N+](=O)[O-])c2)C1` [VLX1570], the “USP14 activity (USP14-Ub-HA) in A375 cells” value at USP14 was “blocked USP14”. The “UCHL5 activity (UCHL5-Ub-HA) in A375 cells” value at UCHL5 is given as “not UCHL5”. Also, in the data set on A375 and Me1501 cells, the melanoma cell death entry is “induced to similar levels”.
On to `CCC[C@H](NC(=O)/C(C#N)=C/c1cccc(Br)n1)c1ccccc1` [WP1130], for which the “cell proliferation of A375 cells (MTS)” value in the data set on A375 is reported as “drastically decreased cell proliferation”.
Broadly, the viability is a read-out of living cells in per cent, often relative to untreated cells. Take `CN[C@@H]1C[C@H]2O[C@@](C)([C@@H]1OC)n1c3ccccc3c3c4c(c5c6ccccc6n2c5c31)C(=O)NC4` [staurosporine]: in data set [1], the viability was 56%.
